This passage reports Km results from publication PMC6116579, “Catalytic and Structural Characterization of a Browning-Related Protein in Oriental Sweet Melon (Cucumis Melo var. Makuwa Makino)” (Frontiers in Chemistry, 2018).

For the assay, the target named is T1, BRP (browning-related protein with PPO activity; matched to endochitinase MCHT-2) (Cucumis melo, UniProt Q9AVA8).
T1 construct: native, partially purified from fruit (ammonium sulfate, DEAE Sepharose, Sephacryl S200); about 18 kDa SDS-PAGE, 37 kDa native PAGE, homodimer
T1 sequence (Q9AVA8 21-311): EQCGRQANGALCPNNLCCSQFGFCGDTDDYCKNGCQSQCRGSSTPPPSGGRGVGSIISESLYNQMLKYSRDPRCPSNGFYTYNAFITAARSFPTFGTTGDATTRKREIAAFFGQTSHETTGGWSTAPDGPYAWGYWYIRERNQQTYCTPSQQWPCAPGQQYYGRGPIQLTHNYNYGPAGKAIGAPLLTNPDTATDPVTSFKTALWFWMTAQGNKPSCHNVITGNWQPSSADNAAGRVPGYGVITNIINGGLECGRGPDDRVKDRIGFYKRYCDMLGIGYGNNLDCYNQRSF
Kind of assay: absorbance at […] nm, Lineweaver-Burk. Type of assay: biochemical. As to conditions: oxidation by air oxygen; 0.05 M Tris-HCl pH 7.0, 25 °C.

`Oc1cccc(O)c1O` [Pyrogallol]: the Km amounted to 42.8 mM.
